Measured values reported in patent US20020142016A1, “Stable skin care product containing a retinoid and a retinoid booster system in a dual compartment package” (priority 2000, published 2002).

Key:
[1] = tested on: retinoic acid oxidation (cytochrome P450 systems); assay: Assay for NADPH dependent retinoic acid oxidation in rat liver microsomes; format: biochemical; details: Sprague Dawley, pH 7.4, probe retinoic acid; for inhibition at 60 min, 100 µM: 10 μM
[2] = Retinol stability in the presence of boosters (OD 360 nm); format: physicochemical; details: booster approximately 0.1%, retinol in approx. 50% aqueous ethanol, 60 hours at room temperature in the dark
Experimental: Retinol (50% in tween 80) was dissolved in approximately 50% aqueous ethanol to provide a solution giving an OD at 360nm of approximately 0.6 when measured in a 200 μl volume in a 96 well plate using a standard 96 well spectrophotometer.
Booster molecules were added at approximately 0.1% concentration and the OD 360 measured as above immediately and after 60 hours at room temperature in the dark. A correction was applied to the OD after 60 hours (divide by 0.85) to account for increased concentration of the retinol due to evaporation of solvent from the plate.

LRAT = target: T1, LRAT (Bos taurus, UniProt Q9BGL2); assay: Assay for LRAT activity in RPE microsomes; format: biochemical, bovine; details: 100 μm compound
T1 construct: followed by approximately 15 pg of RPE microsomal protein; tissue W. L. Lawson Co., Lincoln, Nebr; host or cells: bovine retinal pigment epithelium microsomes
T1 sequence (Q9BGL2 1-230): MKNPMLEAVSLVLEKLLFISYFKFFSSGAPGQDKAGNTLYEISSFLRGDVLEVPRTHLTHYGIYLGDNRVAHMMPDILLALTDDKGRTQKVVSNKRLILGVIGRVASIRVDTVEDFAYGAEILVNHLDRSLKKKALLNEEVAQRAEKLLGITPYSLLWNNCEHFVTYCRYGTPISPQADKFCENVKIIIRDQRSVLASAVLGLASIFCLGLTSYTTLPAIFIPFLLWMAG

TGase I = assay: Transglutaminase (TGase I ELISA) assay in cultured keratinocytes with retinol; format: cell-based; details: for IC50: Keratinocyte, concentration of booster which, with constant retinol 10^-7 M, inhibits TGase by 50%, read-out: Overall TG (IC 50); for % Inhibition Overall TG (-ROH/RE): added effect of booster+retinol induced TGase inhibition over retinol alone

Molecule	FOLD INCREASE IN RATE OF RETINOL LOSS [2]	IC50 (TGase I)	also measured
Clc1ccccc1C(c1ccccc1)(c1ccccc1)n1ccnc1 [Clotrimazole]	–	–	inhibition at 60 min, 10 µM [1]: 76%
COCAMIDE DEA	1.9	–	–
CCCCC/C=C/C/C=C/CCCCCCCC(=O)NC(C)c1ccccc1 (stereo not shown) [Melinamide, reference compound]	–	–	inhibition at 100 µM (LRAT): 43%
CC(C)CCCCCCCCCCCCCCC(=O)O [Isostearic Acid]	–	68.8 µM	–
CC(C)(C)C(=O)C(Oc1ccc(Cl)cc1)n1ccnc1 (stereo not shown) [Climbazole]	–	4.47 µM	inhibition at 60 min, 10 µM [1]: 80%; inhibition at 60 min, 100 µM [1]: 92%
O=c1ccc2ccccc2o1 [COUMARIN]	1.4	–	–
CC1(C)[C@@H](OC(=O)CCC(=O)O)CC[C@]2(C)[C@H]3C(=O)C=C4[C@@H]5C[C@@](C)(C(=O)O)CC[C@]5(C)CC[C@@]4(C)[C@]3(C)CC[C@@H]12 [Carbenoxolone, reference compound]	–	0.361 µM	–
Clc1ccc(COC(Cn2ccnc2)c2ccc(Cl)cc2Cl)c(Cl)c1 (stereo not shown) [Miconazole]	–	–	inhibition at 60 min, 10 µM [1]: 74%; inhibition at 60 min, 100 µM [1]: 86%
COc1cc(NS(C)(=O)=O)ccc1Nc1c2ccccc2nc2ccccc12 [Amsacrine, reference compound]	–	6.26 µM	–
CC(=O)/C=C/C1C(C)=CCCC1(C)C (stereo not drawn) [Alpha-Ionone]	1.3	–	–
Oc1cccc2cccnc12 [8 OH QUINOLINE]	1.5	–	–
Clc1ccc(COC(Cn2ccnc2)c2ccc(Cl)cc2Cl)cc1 (stereo not shown) [Econazole]	–	–	inhibition at 60 min, 10 µM [1]: 88%; inhibition at 60 min, 100 µM [1]: 100%
CC(=O)c1cc2c(cc1C)C(C)(C)C(C)CC2(C)C (stereo not shown) [Tonalid]	–	–	inhibition at 100 µM (LRAT): 33%
CCCCCCCCCCCC(=O)N(C)CC(=O)O [Lauroyl Sarcosine]	2.6	–	–
CCCCCCCC/C=C/CCCCCCCC(=O)O [Elaidic Acid]	–	65 µM	–
CC1(C)[C@@H](O)CC[C@]2(C)[C@H]3C(=O)C=C4[C@@H]5C[C@@](C)(C(=O)O)CC[C@]5(C)CC[C@@]4(C)[C@]3(C)CC[C@@H]12 [Glycyrretinic Acid]	1.6	–	–
CC(/C=C/C=C(\C)C(=O)O)=C\C=C\C=C(C)\C=C\C=C(/C)C(=O)O [Crocetin]	–	37.5 µM	inhibition at 100 µM (LRAT): 15%
c1ccc(-c2ccc(C(c3ccccc3)n3ccnc3)cc2)cc1 (stereo not shown) [Bifonazole]	–	–	inhibition at 60 min, 10 µM [1]: 89%; inhibition at 60 min, 100 µM [1]: 100%
CC(C)=CCC/C(C)=C/CC/C(C)=C/CC/C(C)=C/CO [Geranyl Geraniol]	–	–	inhibition at 100 µM (LRAT): 77%
CCN(CC)CC(=O)Nc1c(C)cccc1C [Lidocaine, reference compound]	–	–	inhibition at 100 µM (LRAT): 0%
CCCCCCCCCCCCCC(=O)N(C)CC(=O)O [Myristoyl Sarcosine]	–	–	inhibition at 100 µM (LRAT): 11%
CC(C)(C(=O)c1cccnc1)c1cccnc1 [Metyrapone (2-Methyl-1,2-di-3-Pyridyl-1-Propane]	–	–	inhibition at 60 min, 100 µM [1]: 47%
CC(C)=CCCC(C)=CCCC(C)=CCO [Farnesol]	–	93.5 µM	inhibition at 100 µM (LRAT): 53%
CCCCC/C=C\C/C=C\CCCCCCCC(=O)NCCCN(C)C [Linoleamidopropyl Dimethylamine]	–	–	inhibition at 100 µM (LRAT): 75%
CC(C)=CCCC(C)=CC=O [Citral]	3.1	–	–
CN1CCN(C)C1=O [Dimethyl Imidazolidinone]	1.4	–	% Inhibition Overall TG (-ROH/RE) (TGase I): 22%
CC(C)=CCC/C(C)=C/CO [Geraniol]	1.3	7830 µM	–
DAMASCONE	3.7	–	–
O=C(O)CCCCCCCCCCCCCCC(=O)O [Hexadecanedioic Acid]	–	130 µM	–
CC(=O)N1CCN(c2ccc(OCC3COC(Cn4ccnc4)(c4ccc(Cl)cc4Cl)O3)cc2)CC1 (stereo not shown) [Ketoconazole]	–	0.185 µM	inhibition at 60 min, 10 µM [1]: 84%; inhibition at 60 min, 100 µM [1]: 84%

Further lines, with some results ahead:

FOLD INCREASE IN RATE OF RETINOL LOSS [2]	IC50 (TGase I)	Molecule	also measured
–	62.9 µM	O=c1c(O)c(-c2ccc(O)c(O)c2)oc2cc(O)cc(O)c12 [Quercetin]	inhibition at 60 min, 10 µM [1]: 40%; inhibition at 60 min, 100 µM [1]: 74%
3.4	163 µM	CCCCC/C=C\C/C=C\CCCCCCCC(=O)O [Linoleic Acid]	–
–	134 µM	CC/C=C\C/C=C\C/C=C\CCCCCCCC(=O)O [Linolenic Acid]	–
–	1.46 µM	C[C@H]1[C@H](C)CC[C@]2(C(=O)O)CC[C@]3(C)C(=CC[C@@H]4[C@@]5(C)CC[C@H](O)C(C)(C)[C@@H]5CC[C@]43C)[C@H]12 [Urosolic Acid]	–
3.0	–	CCCCC/C=C\C/C=C\CCCCCCCC(=O)N(CCO)CCO [Linoleamide-DEA (or Linoleoyl Diethanolamide)]	% Inhibition Overall TG (-ROH/RE) (TGase I): 59%
–	17.2 µM	CCCCCCCCCCCCCC(=O)O [Myristic Acid]	–
–	9700 µM	COc1cc(C=O)ccc1O [Vanillin]	–
